Earlier results as cited in PubChem BioAssay AID1259409 (Chemical Carcinogenesis Research Information System (CCRIS), 2018).

Tested on: rodent chemically induced tumor inhibition, incidence and multiplicity
Test: CCRIS tumor inhibitor studies
Settings: Dose [Inhibitor]: 0

Q: With `O=c1oc2c(O)c(O)cc3c(=O)oc4c(O)c(O)cc1c4c23` as the compound, how does the “tumour outcome (control, treated, inhibition, significance)” value (Carcinogen: 4-(METHYLNITROSOAMINO-1-(PYRIDYL)-1-BUTANONE, 64091-91-4, 4 G/KG DIET BEGINNING 2 WK PRIOR TO CARCINOGEN DOSE (STUDY DURATION: 18 WK), Route [Inhibitor]: ORAL, Species: MOUSE, Strain/Sex: STRAIN-A/FEMALE, Target Tissue: Type of Lesion: LUNG: ADENOMA, Dose [Carcinogen]: 2 MG IN 0.2 ML OF 0.9% NACL ONCE, Promoter: NONE USED) read?
A: 100%, 100%, 0%, not significant

Q: And the “tumour outcome (control, treated, inhibition, significance)” value (Carcinogen: 4-METHYLNITROSOAMINO-1-(PYRIDYL)-1-BUTANONE, 64091-91-4, 4 G/KG DIET BEGINNING 2 WK PRIOR TO CARCINOGEN DOSE AND CONTINUING FOR STUDY DURATION (STUDY DURATION: 18 WK), Route [Inhibitor]: ORAL, Species: MOUSE, Strain/Sex: STRAIN-A/FEMALE, Target Tissue: Type of Lesion: LUNG: ADENOMA, Dose [Carcinogen]: 62.4 UG/ML DRINKING WATER FOR 7 WK (TOTAL DOSE 9.4 MG), Promoter: NONE USED)?
A: 100%, 96%, 4%, not calculated

Q: And the “tumour outcome (control, treated, inhibition, significance)” value (Carcinogen: 4-NITROQUINOLINE-1-OXIDE, 56-57-5, 400 PPM IN DIET FOR 7 WK BEGINNING 1 WK PRIOR TO START OF CARCINOGEN TREATMENT (STUDY DURATION: 32 WK), Route [Inhibitor]: ORAL, Species: RAT, Strain/Sex: F344/MALE, Target Tissue: Type of Lesion: TONGUE: PAPILLOMA, Dose [Carcinogen]: 20 PPM IN DRINKING WATER FOR 5 WK, Promoter: NONE USED)?
A: 1/15 (7%), 0/15 (0%), 100%, not significant

Q: What about the “tumour outcome (control, treated, inhibition, significance)” value (Carcinogen: 7,12-DIMETHYLBENZ[A]ANTHRACENE, 57-97-6', 1000 PPM IN DIET FOR DURATION OF STUDY BEGINNING CONCURRENTLY WITH CARCINOGEN TREATMENT (STUDY DURATION: 42 WK0, Route [Inhibitor]: ORAL, Species: FISH, Strain/Sex: RAINBOW TROUT/ MALE, FEMALE, Target Tissue: Type of Lesion: LIVER: TUMOR, Dose [Carcinogen]: 750 PPM IN DIET FOR 7 WK, Promoter: NONE USED) of the same compound?
A: 6%, 9%, -50%, not significant

Q: What about the “tumour outcome (control, treated, inhibition, significance)” value (Carcinogen: 7,12-DIMETHYLBENZ[A]ANTHRACENE, 57-97-6, 5 UMOL IN 0.4 ML ACETONE 20 MIN PRIOR TO EACH PROMOTER DOSE (STUDY DURATION: 47 WK), Route [Inhibitor]: DERMAL, Species: MOUSE, Strain/Sex: CF-1/FEMALE, Target Tissue: Type of Lesion: SKIN: CARCINOMA, Dose [Carcinogen]: 100 NMOL IN 0.2 ML ACETONE ONCE) of the same compound?
A: 67%, 17%, 75%, not calculated

Q: What about the “tumour outcome (control, treated, inhibition, significance)” value (Carcinogen: 7,12-DIMETHYLBENZ[A]ANTHRACENE, 57-97-6, 5 UMOL IN 0.4 ML ACETONE 20 MIN PRIOR TO EACH PROMOTER DOSE (STUDY DURATION: 47 WK), Route [Inhibitor]: DERMAL, Species: MOUSE, Strain/Sex: CF-1/FEMALE, Target Tissue: Type of Lesion: SKIN: PAPILLOMA, Dose [Carcinogen]: 100 NMOL IN 0.2 ML ACETONE ONCE) of the same compound?
A: 94%, 54%, 43%, not calculated

Q: What about the “tumour outcome (control, treated, inhibition, significance)” value (Carcinogen: 7,12-DIMETHYLBENZ[A]ANTHRACENE, 57-97-6, 100 PPM IN DIET FOR 19 WK BEGINNING POST CARCINOGEN TREATMENT (STUDY DURATION: 42 WK), Route [Inhibitor]: ORAL, Species: FISH, Strain/Sex: RAINBOW TROUT/ MALE, FEMALE, Target Tissue: Type of Lesion: STOMACH: TUMOR, Dose [Carcinogen]: 4.16 PPM IN WATER FOR 1 HR, Promoter: NONE USED) of the same compound?
A: 97%, 65%, 33%, p<0.001

Q: And the “tumour outcome (control, treated, inhibition, significance)” value (Carcinogen: 7,12-DIMETHYLBENZ[A]ANTHRACENE, 57-97-6, 100 PPM IN DIET FOR 19 WK BEGINNING POST CARCINOGEN TREATMENT (STUDY DURATION: 42 WK), Route [Inhibitor]: ORAL, Species: FISH, Strain/Sex: RAINBOW TROUT/ MALE, FEMALE, Target Tissue: Type of Lesion: SWIM BLADDER: TUMOR, Dose [Carcinogen]: 4.16 PPM IN WATER FOR 1 HR, Promoter: NONE USED)?
A: 14%, 14%, 0%, not significant

Q: And the “tumour outcome (control, treated, inhibition, significance)” value (Carcinogen: 7,12-DIMETHYLBENZ[A]ANTHRACENE, 57-97-6, 250 PPM IN DIET FOR 19 WK BEGINNING POST CARCINOGEN TREATMENT (STUDY DURATION: 42 WK), Route [Inhibitor]: ORAL, Species: FISH, Strain/Sex: RAINBOW TROUT/ MALE, FEMALE, Target Tissue: Type of Lesion: LIVER: TUMOR, Dose [Carcinogen]: 4.16 PPM IN WATER FOR 1HR, Promoter: NONE USED)?
A: 7%, 17%, -143%, p<0.001

Q: What about the “tumour outcome (control, treated, inhibition, significance)” value (Carcinogen: 7,12-DIMETHYLBENZ[A]ANTHRACENE, 57-97-6, 250 PPM IN DIET FOR 19 WK BEGINNING POST CARCINOGEN TREATMENT (STUDY DURATION: 42 WK), Route [Inhibitor]: ORAL, Species: FISH, Strain/Sex: RAINBOW TROUT/ MALE, FEMALE, Target Tissue: Type of Lesion: STOMACH: TUMOR, Promoter: NONE USED) of the same compound?
A: 97%, 39%, 60%, p<0.001

Q: What about the “tumour outcome (control, treated, inhibition, significance)” value (Carcinogen: 7,12-DIMETHYLBENZ[A]ANTHRACENE, 57-97-6, 250 PPM IN DIET FOR 19 WK BEGINNING POST CARCINOGEN TREATMENT (STUDY DURATION: 42 WK), Route [Inhibitor]: ORAL, Species: FISH, Strain/Sex: RAINBOW TROUT/MALE, FEMALE, Target Tissue: Type of Lesion: SWIM BLADDER: TUMOR, Dose [Carcinogen]: 4.16 PPM IN WATER FOR 1HR, Promoter: NONE USED) of the same compound?
A: 14%, 13%, 7%, not significant

Q: And the “tumour outcome (control, treated, inhibition, significance)” value (Carcinogen: 7,12-DIMETHYLBENZ[A]ANTHRACENE, 57-97-6, 1000 PPM IN DIET FOR 17 WK BEGINNING POST CARCINOGEN TREATMENT (STUDY DURATION: 42 WK), Route [Inhibitor]: ORAL, Species: FISH, Strain/Sex: RAINBOW TROUT/ MALE, FEMALE, Target Tissue: Type of Lesion: STOMACH: TUMOR, Dose [Carcinogen]: 5.5 PPM IN WATER FOR 1 HR, Promoter: NONE USED)?
A: 88%, 26%, 70%, p<0.001
